Results from patent publication US20260356823A1, “SODIUM CHANNEL REGULATOR AND USE THEREOF” (SHANGHAI HUILUN PHARMACEUTICAL CO., LTD., priority 2022, published 2026).

Key:
[1] = background; cited from earlier work
Nav1.8 = settings: background; cited from earlier work
human Nav1.8 = molecular target: T1, human Nav1.8 (Homo sapiens, UniProt Q9Y5Y9); experiment: In vitro inhibition of Nav1.8, manual patch clamp on HEK293 cells stably expressing human Nav1.8; type: cell-based; settings: HEK293, 100 nM, human Nav1.8, manual patch clamp, read-out: Inhibitory activity (inhibition/% at 100 nM concentration)
T1 construct: expressed in transfected cells
Description: Bioactivity Test 1: In Vitro Inhibition of Nav1.8 by the Compound
By using a manual patch clamp on HEK293 cells stably expressing human Nav1.8, currents on Nav1.8 before and after administration of the compound were compared after the currents on Nav1.8 were stable, to obtain the effect of the compound on the Nav1.8 channel.
The to-be-tested compound was dissolved in DMSO to prepare a 9 mM stock solution, which was taken and dissolved in extracellular fluid at a desired concentration on the day of testing. The extracellular fluid included the following ingredients (mM): NaCl, 137; KCl, 4; CaCl2, 1.8; MgCl2, 1; HEPES, 10; glucose, 10; and pH 7.4 (NaOH titration). All reagents were purchased from Sigma (St. Louis, MO).
The cells were clamped at −80 mV and depolarized with a sustained 10 ms square wave to 10 mV to obtain a current on Nav1.8. This process was repeated every 5 seconds. A maximum current caused by the square wave was detected. After the current is stable, the to-be-tested compound (dissolved in the extracellular fluid at the desired concentration) was perfused. After the current is stable, the strength of blocking Nav1.8 by the compound was calculated based on the currents before and after perfusion of the compound. pCLAMP 10 (Molecular Devices, Union City, CA) was used. That the current is stable means that the current changes over time within a limited range.

Nav1.8 sodium channel = molecular target: T2, Nav1.8 sodium channel (Homo sapiens, UniProt Q9Y5Y9); experiment: In vitro inhibition IC50 of Nav1.8, whole-cell patch clamp on CHO cell line stably expressing Nav1.8 (SCN10A, NM_006514); type: cell-based; settings: CHO cells stably expressing Nav1.8, whole-cell patch clamp, room temperature
T2 construct: expressed in transfected cells
Source text: Bioactivity Test 2: In Vitro Inhibition IC50 of Nav1.8 by the Test Compound
A CHO cell line stably expressing the Nav1.8 sodium channel was used for experimental assays with the following gene information: Sodium channel, voltage-gated, type 8, alpha (SCN10A), cDNA strictly similar to GenBank accession number: NM_006514.
Before the patch clamp assay, the cells were detached with 0.25%-Trypsin-EDTA, and 6.5×10^3 cells were spread onto cover slips and cultured in a 24-well plate (final volume: 500 μL) for 18 h. Then, the assay was carried out.
Fluids for electrophysiological recording included: extracellular fluid: K-007-1, 140 mM NaCl, 3.5 mM KCl, 1 mM MgCl2·6H2O, 2 mM CaCl2·2H2O, 10 mM D-Glucose, 10 mM HEPES, 1.25 mM NaH2PO4·2H2O, and NaOH for adjustment to pH=7.4; and intracellular fluid: Nav-001-2, 50 mM CsCl, 10 mM NaCl, 10 mM HEPES, 60 mM CsF, 20 mM EGTA, and […]. The extracellular fluid was stored for 2 weeks. The intracellular fluid was prepared and dispensed as 1 mL per tube, and frozen in a refrigerator at −20° C. Freshly thawed intracellular fluid was used for daily experiments. All intracellular fluids have to be used up within three months. Beyond three months, the old intracellular fluid has to be discarded, and the intracellular fluid needs to be prepared again.
Patch clamp assay: Whole-cell patch-clamp recording Nav1.8 sodium currents under voltage stimulation was carried out as follows: When a whole-cell seal was formed, the cell was clamped at a voltage of −120 mV and maintained for 30 ms. The cell was depolarized from the clamping voltage to 0 mV and maintained for 50 ms. Then, the voltage was restored to −50 mV (for a specific voltage, refer to a half-inactivation voltage from an IV test) and maintained for 5 s. Next, the cell membrane potential was restored to −120 mV and maintained for 20 ms. Then, the cell was depolarized to 0 mV and maintained for 50 ms. Finally, the voltage was restored to the clamping voltage −120 mV and maintained for 30 ms. Data was collected at […]. The effect of the drug on a peak sodium current was observed. Experimental data was collected by an EPC 10 amplifier (HEKA) and stored in PatchMaster (HEKA) software.
A capillary glass tube was pulled into a recording electrode by using a microelectrode puller. The electrode filled with the intracellular fluid was loaded into an electrode holder. A microelectrode manipulator was manipulated under an inverted microscope to immerse the electrode into the extracellular fluid, and an electrode resistance (Rpip) was recorded. The electrode was brought into contact with the cell surface, and suction was applied under negative pressure to form a high-resistance seal (GQ). In this case, fast capacitance compensation was carried out, and negative pressure was then applied to break the cell membrane through suction to form a whole-cell recording mode. Then, slow capacitance compensation was carried out, and experimental parameters such as a membrane capacitance (Cm) and a series resistance (Rs) were recorded. No leakage compensation was carried out.
The drug was administered after the Nav1.8 current obtained by whole-cell recording. The drug acted at each concentration for 5 min (or until the current was stable), and then the drug was tested at a next concentration. Each test compound was tested for multiple concentrations. The cover slips with the cells spread were placed in a recording bath under an inverted microscope. A blank control extracellular fluid and a working solution of the to-be-tested compound were perfused by gravity through the recording bath into the cells from low concentration to high concentration. Fluid exchange was carried out by using a peristaltic pump during the recording. A current detected for each cell in the compound-free extracellular fluid served as its own control. For each concentration, at least three cells were tested independently for three times. […]

[2] = Efficacy on a mouse model of incisional pain, mechanical pain threshold (PWT); type: in vivo; settings: intravenous
Source text: Bioactivity Test 3: Efficacy of the Compound on a Mouse Model of Incisional Pain
Model establishment: Through isoflurane anesthesia and routine disinfection, a 0.5 cm longitudinal skin incision extending to the toe was made with a blade on the plantar surface of the left hindfoot about 0.2 cm distal to the joint; and the plantar muscle was separated, slightly elevated, and then incised longitudinally, taking care not to disrupt the muscle origin. The incision was sutured horizontally and interruptedly with 5-0 nylon thread (2 sutures).
Solvents: A solvent for the test compound was 5% DMSO+10% Solutol+85% Saline, and a solvent for a positive compound TRV-130 was 10% ethanol+10% cremophor+80% water. […]
Mechanical pain threshold measurement: Before modeling, a pre-modeling mechanical pain threshold was measured. At 2.5 h after modeling, a pre-administration mechanical pain threshold was measured. Oral administration was carried out after the measurement, and a mechanical pain threshold was measured at 2 h after the administration. […] Each animal was measured three times at intervals of 3-5 minutes, and an average value was calculated.
Data analysis: Relevant data was organized in Office Excel 2013 and GraphPad Prism 6.0. Data was expressed as Mean±SEM (standard error). […]

T2 sequence (Q9Y5Y9 whole entry): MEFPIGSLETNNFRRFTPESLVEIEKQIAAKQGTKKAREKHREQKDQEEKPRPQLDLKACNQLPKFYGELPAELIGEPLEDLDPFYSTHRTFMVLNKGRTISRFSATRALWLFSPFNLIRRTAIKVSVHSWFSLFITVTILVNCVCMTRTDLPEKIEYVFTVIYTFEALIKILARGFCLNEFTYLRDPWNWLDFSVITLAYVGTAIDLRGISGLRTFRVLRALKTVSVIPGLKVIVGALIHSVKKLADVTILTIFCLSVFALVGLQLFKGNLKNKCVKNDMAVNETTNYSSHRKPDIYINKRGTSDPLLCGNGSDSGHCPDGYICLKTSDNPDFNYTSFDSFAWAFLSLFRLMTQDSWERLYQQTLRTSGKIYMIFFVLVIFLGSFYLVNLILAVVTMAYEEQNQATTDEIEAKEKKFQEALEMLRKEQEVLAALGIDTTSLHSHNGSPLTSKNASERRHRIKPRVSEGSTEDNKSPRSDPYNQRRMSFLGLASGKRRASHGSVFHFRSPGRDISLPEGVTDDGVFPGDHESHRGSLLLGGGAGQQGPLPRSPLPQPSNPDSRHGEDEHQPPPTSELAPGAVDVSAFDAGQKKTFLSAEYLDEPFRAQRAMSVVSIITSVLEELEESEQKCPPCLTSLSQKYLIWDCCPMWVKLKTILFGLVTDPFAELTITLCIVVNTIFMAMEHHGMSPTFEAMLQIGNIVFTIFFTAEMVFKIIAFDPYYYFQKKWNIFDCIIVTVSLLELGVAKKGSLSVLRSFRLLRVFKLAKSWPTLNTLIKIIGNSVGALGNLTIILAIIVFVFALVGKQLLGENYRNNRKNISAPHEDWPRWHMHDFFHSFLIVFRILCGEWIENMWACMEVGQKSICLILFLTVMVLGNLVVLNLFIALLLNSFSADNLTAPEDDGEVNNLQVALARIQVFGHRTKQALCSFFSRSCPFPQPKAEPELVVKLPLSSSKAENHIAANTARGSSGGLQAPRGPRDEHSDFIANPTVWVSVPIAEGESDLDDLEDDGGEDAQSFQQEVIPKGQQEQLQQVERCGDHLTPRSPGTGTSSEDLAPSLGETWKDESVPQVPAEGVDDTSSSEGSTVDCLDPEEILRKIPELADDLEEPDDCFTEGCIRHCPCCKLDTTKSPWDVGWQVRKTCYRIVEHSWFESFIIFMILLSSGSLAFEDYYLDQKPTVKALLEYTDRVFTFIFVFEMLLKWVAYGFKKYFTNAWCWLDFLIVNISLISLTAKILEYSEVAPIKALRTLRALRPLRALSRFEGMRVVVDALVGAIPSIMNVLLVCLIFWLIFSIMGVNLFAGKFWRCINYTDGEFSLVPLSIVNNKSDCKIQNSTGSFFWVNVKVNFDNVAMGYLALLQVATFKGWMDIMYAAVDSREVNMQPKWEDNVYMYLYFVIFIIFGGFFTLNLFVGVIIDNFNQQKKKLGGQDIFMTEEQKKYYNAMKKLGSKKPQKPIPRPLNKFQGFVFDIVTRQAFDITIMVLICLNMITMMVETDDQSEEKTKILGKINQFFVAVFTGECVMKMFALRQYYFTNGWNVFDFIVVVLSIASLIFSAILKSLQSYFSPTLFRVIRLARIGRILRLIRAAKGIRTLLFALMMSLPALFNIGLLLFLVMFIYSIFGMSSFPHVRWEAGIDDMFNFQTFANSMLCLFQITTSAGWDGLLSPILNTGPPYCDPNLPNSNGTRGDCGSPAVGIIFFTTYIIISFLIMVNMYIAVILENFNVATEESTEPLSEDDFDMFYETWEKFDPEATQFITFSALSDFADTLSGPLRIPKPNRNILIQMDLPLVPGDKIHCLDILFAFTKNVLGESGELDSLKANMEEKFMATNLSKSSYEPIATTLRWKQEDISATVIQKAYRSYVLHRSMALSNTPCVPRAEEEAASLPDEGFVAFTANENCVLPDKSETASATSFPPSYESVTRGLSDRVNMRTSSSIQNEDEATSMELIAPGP
T1 sequence (Q9Y5Y9 whole entry): as above

Structure (SMILES) | bioavailability (in words) [1] | pharmacokinetic data (in words) [1] | selectivity (in words) (Nav1.8) | inhibition at 0.1 µM (human Nav1.8) | IC50 (Nav1.8 sodium channel) | other results
CNC(=O)c1ccc(-c2cc(Cl)cc(Cl)c2Cl)c(N)n1 [PF-01247324] | low bioavailability | poor pharmacokinetic data | poor selectivity | – | – | –
COc1cc(NC(=O)c2ccc(-c3ccc(Cl)cc3)o2)cc(OC)c1 [Example A-803467] | low bioavailability | poor pharmacokinetic data | poor selectivity | – | – | –
COc1c(C2[C@H](C(=O)Nc3ccc(F)c(S(N)(=O)=O)c3)O[C@@](C)(C(F)(F)F)[C@H]2C)ccc(F)c1F (relative stereo) [Example 81] | – | – | – | ≥ 50% | < 0.5 nM | –
COc1ccsc1CNCC[C@@]1(c2ccccn2)CCOC2(CCCC2)C1 [TRV-130] | – | – | – | – | – | PWT after modeling ([2]; TRV-130 0.5 mg/kg group, after modeling, pre-administration, 2.5 h after modeling): 5.40 g; PWT 2 h after administration ([2]; TRV-130 0.5 mg/kg, 2 h after administration): 8.94 g
C[C@@H](C(N)=O)[C@H](N)c1nc2ccc(C(C)(C)C)cc2[nH]1 [PF-06305591] | low bioavailability | poor pharmacokinetic data | poor selectivity | – | – | –
COc1c([C@H]2[C@H](C(=O)Nc3ccc4c(c3)NC(=O)C4)O[C@@](C)(C(F)(F)F)[C@H]2C)ccc(F)c1F (relative stereo) [Example 2] | – | – | – | ≥ 50% | 67 nM | –
COc1c([C@H]2[C@H](C(=O)Nc3ccc4c(c3)C(=O)NCC4)O[C@@](C)(C(F)(F)F)[C@H]2C)ccc(F)c1F (relative stereo) [Example 6, rel-(2R,3S,4S,5R)-3-(3,4-difluoro-2-methoxyphenyl)-4,5-dimethyl-N-(1-oxo-1,2,3,4-tetrahydroisoquinolin-7-yl)-5-(trifluoromethyl)tetrahydrofuran-2-carboxamide] | – | – | – | ≥ 50% | 2 nM | –
COc1c([C@H]2[C@H](C(=O)Nc3ccnc(C(N)=O)c3)OC3(C(F)(F)F)CCC23C)ccc(F)c1F (relative stereo) [Example 59, rel-(2R,3S)-4-({[3-(3,4-difluoro-2-methoxyphenyl)-3a-methyl-5a-(trifluoromethyl)hexahydrocyclobuta[2,1-b]furan-2-yl]carbonyl}amino)pyridin-2-carboxamide] | – | – | – | ≥ 50% | 2 nM | –
